Results taken from patent publication US12233081B2, “Hygromycin a compounds and methods of treating spirochete diseases” (priority 2018, dated 2025).

Tested on: gut microbiome
Experiment: gut microbiome 16S rRNA sequencing of stool of infected, treated mice
Settings: oral 50 mg/kg every 12 hours for 5 days; for Bacteroidaceae change in percent relative abundance / Streptococcaceae change in percent relative abundance: 50 mg/kg

Structure (SMILES): CC(=O)[C@H]1O[C@@H](Oc2ccc(/C=C(\C)C(=O)N[C@@H]3[C@H](O)[C@@H](O)[C@H]4OCO[C@H]4[C@@H]3O)cc2O)[C@@H](O)[C@@H]1O [Hygromycin A]
- Aerococcaceae change in percent relative abundance: 0.000%
- Anaerolineaceae change in percent relative abundance: 0.000%
- Anaeroplasmataceae change in percent relative abundance: −0.016%
- Anaplasmataceae change in percent relative abundance: 0.000%
- Aspergillaceae change in percent relative abundance: 0.000%
- Asteraceae change in percent relative abundance: 0.000%
- Bacillaceae change in percent relative abundance: −0.009%
- Bacillales change in percent relative abundance: −0.092%
- Bifidobacteriaceae change in percent relative abundance: 0.013%
- Brucellaceae change in percent relative abundance: 0.000%
- Camobacteriaceae change in percent relative abundance: 0.005%
- Chitinophagaceae change in percent relative abundance: 0.000%
- Christensenellaceae change in percent relative abundance: 0.000%
- Clostridiaceae change in percent relative abundance: −5.257%
- Clostridiales change in percent relative abundance: −0.174%
- Clostridiales family xi. incertae sedis change in percent relative abundance: −0.032%
- Clostridiales family xiii. incertae sedis change in percent relative abundance: −0.007%
- Coriobacteriaceae change in percent relative abundance: −0.038%
- Corynebacteriaceae change in percent relative abundance: 0.000%
- Cytophagaceae change in percent relative abundance: −0.001%
- Deferribacteraceae change in percent relative abundance: −1.462%
- Defluviitaleaceae change in percent relative abundance: −0.002%
- Desulfobacteraceae change in percent relative abundance: −0.001%
- Enterobacteriaceae change in percent relative abundance: −0.026%
- Enterococcaceae change in percent relative abundance: 6.546%
- Erysipelotrichaceae change in percent relative abundance: 1.506%
- Eubacteriaceae change in percent relative abundance: −6.405%
- Fabaceae change in percent relative abundance: 0.000%
- Flavobacteriaceae change in percent relative abundance: −0.001%
- Francisellaceae change in percent relative abundance: 0.000%
- Fusobacteriaceae change in percent relative abundance: 0.000%
- Gammaproteobacteria change in percent relative abundance: −0.025%
- Gloeobacteraceae change in percent relative abundance: −0.013%
- Gracilibacteraceae change in percent relative abundance: −0.072%
- Halomonadaceae change in percent relative abundance: 0.000%
- Hylidae change in percent relative abundance: 0.000%
- Kopriimonadaceae change in percent relative abundance: 0.000%
- Lachnospiraceae change in percent relative abundance: −8.372%
- Lactobacillaceae change in percent relative abundance: 22.074%
- Leuconostocaceae change in percent relative abundance: 0.000%
- Methylobacteriaceae change in percent relative abundance: 0.000%
- Microbacteriaceae change in percent relative abundance: 0.000%
- Mucoraceae change in percent relative abundance: 0.000%
- Nostocaceae change in percent relative abundance: 0.000%
- Onagraceae change in percent relative abundance: 0.000%
- Oscillatoriales change in percent relative abundance: 0.001%
- Oscillospiraceae change in percent relative abundance: −0.009%
- Paenibacillaceae change in percent relative abundance: −0.002%
- Pasteurellaceae change in percent relative abundance: 0.000%
- Pelobacteraceae change in percent relative abundance: 0.000%
- Peptococcaceae change in percent relative abundance: −0.835%
- Peptoniphilaceae change in percent relative abundance: 0.000%
- Peptostreptococcaceae change in percent relative abundance: −0.095%
- Physalacriaceae change in percent relative abundance: 0.000%
- Poaceae change in percent relative abundance: 0.007%
- Polyangiaceae change in percent relative abundance: 0.000%
- Porphyromonadaceae change in percent relative abundance: −23.435%
- Prevotellaceae change in percent relative abundance: −0.285%
- Pseudomonadaceae change in percent relative abundance: 0.000%
- Rhizobiaceae change in percent relative abundance: 0.000%
- Rhodobacteraceae change in percent relative abundance: 0.000%
- Rikenellaceae change in percent relative abundance: −4.391%
- Ruminococcaceae change in percent relative abundance: −1.494%
- Sphingomonadaceae change in percent relative abundance: 0.000%
- Spirochaetaceae change in percent relative abundance: −0.086%
- Spiroplasmataceae change in percent relative abundance: −0.093%
- Staphylococcaceae change in percent relative abundance: 0.001%
- Thermoanaerobacteraceae change in percent relative abundance: −0.010%
- Veillonellaceae change in percent relative abundance: 0.002%
- Verrucomicrobiaceae change in percent relative abundance: −0.017%
- Xanthomonadaceae change in percent relative abundance: 0.000%
- increases in Enterococcaceae or Enterobacteriaceae: did not lead to increases
- mice that maintained Bacteroidaceae: 1/5
- mice with decreased Bacteroidaceae: 3/5
- mice with increased Bacteroidaceae: 1/5
- Bacteroidaceae change in percent relative abundance: −8.5%
- Streptococcaceae change in percent relative abundance: 31.09%
- Bacteroidaceae change in percent relative abundance (listed as Hyg): −8.462%
- Streptococcaceae change in percent relative abundance (listed as Hyg): 31.098%
